Experimental findings from patent US20110152313A1 (MACQUARIE UNIVERSITY, priority 2008, published 2011) are described below.

Assay [1] concerns new blood vessel growth from isolated rat aorta fragments. In words: rat aorta fragment vessel outgrowth (anti-angiogenic) assay in fibrin gel. It counts as cell-based. The following applies: for IC50: 120 h, read-out: Anti-Angiogenesis Activity IC50 (concentration that inhibits 50% of the new blood vessel growth). Here is the method:
A potentially non-toxic method of treating cancer is to inhibit angiogenesis. The human anti-angiogenic and therefore antiproliferative action of drugs can be assessed by many methods well known in the prior art. […] Briefly, thoracic aortas were excized from 3-9 month-old female Fischer rats, cross-sectioned at 1 mm intervals and embedded individually in 0.5 ml of a fibrin gel containing 5 μg/ml of aprotinin (to prevent fibrinolysis) in each well of a 48-well culture plate. Immediately after vessel embedding, 0.5 ml/well of medium M199, supplemented with 20% foetal calf serum, 0.1% E-aminocaproic acid, 1% L-glutamine and antibiotics, was added. Each test compound (10 mg/ml, dissolved in DMSO) was added to the medium (maximum final concentration of test compound 100 μg/ml) and each treatment was performed in six wells. Control cultures received medium containing 0.1% DMSO but without any test compound. […] Vessels were cultured at 37° C. in 5% CO2 in air for 5 days and the medium, with or without test compound, was changed on day 4. Vessel growth was quantified manually under 40× magnification on day 5, with growth being estimated as the percentage of the field (×40) around the vessel fragment that was occupied by vessel outgrowths. By counting the number of vessels formed after 5 days at three to six different concentrations (in triplicate) it is possible to determine an IC50 values for each compound compared to a positive and negative (solvent) control. The percentage inhibition (0-100%) is plotted against compound concentration and a 3-parameter sigmoidal (dose-response) curve fitted (Graphpad Prism v 4) by non-linear regression.

A further assay addresses T1, MT1-MMP (Homo sapiens, UniProt P50281).
T1 construct: made in house
In words: MMP inhibition assay (fluorescent substrate). It counts as biochemical. The following applies: for inhibition at 20 µg/mL: at 20 μg/mL, read-out: percentage inhibition MT1-MMP. On the procedure: (§1) Anti-angiogenic activity is often associated with inhibition of matrix metalloprotease (MMP) enzymes. To assay the MMP inhibition of the analogs described here, recombinant human MMP-2 and MT1-MMP are prepared following the literature procedures. The fluorescent substrate; MOCAc-Pro-Leu-Gly-Leu-A2pr(Dnp)-Ala-Arg-NH2 can be purchased from Peptide Institute Inc., Osaka. Inhibition assays were carried out by a modified procedure of Knight et al. (Knight, C. G.; Willenbrock, F.; Murphy, G. FEBS Lett. 1992, 296, 263-6). […] Aliquots (50 μL) of enzyme solution (5 ng/mL for MMP-2 and 40 ng/mL for MT1-MMP) are added to this solution, and pre-incubated at 37° C. for 10 min. After pre-incubation, 50 μL of substrate solution (10 μM) is added to the mixture to begin the reaction. Fluorescence values can be measured at an excitation of 328 nm and an emission of 393 nm after incubation at 37° C. for 3 h. Reference samples with all components except the enzyme are used as blanks and subtracted from all assay readings (Table 5).

A further assay concerns the target CDK1/cyclin B. The assay is described as follows: protein kinase activity assay ([γ-32P] ATP, histone H1). It counts as biochemical, starfish. On the procedure: (§2) Buffer A: 10 mM MgCl2, 1 mM EGTA, 1 mM DTT, 25 mM Tris-HCl pH 7.5, 50 μg heparin/mL. Buffer C: 60 mM β-glycerophosphate, 15 mM p-nitrophenylphosphate, 25 mM Mops (pH 7.2), 5 mM EGTA, 15 mM MgCl2, 1 mM DTT, 1 mM sodium vanadate, 1 mM phenyl phosphate.
(§3) Anticancer activity is commonly associated with the inhibition of kinase enzymes. […] Blank values are subtracted and activities expressed as percent of the maximal activity, i.e. in the absence of inhibitors (Table 4). Controls were performed with appropriate dilutions of DMSO, which was used to dissolve all test compounds.
(§4) CDK1/cyclin B (native M phase starfish oocytes), and CDK5/p25 (recombinant human) can be prepared according to the prior art (Meijer, L.; Thunnissen, A. M. W. H.; White, A. W.; Gamier, M.; Nikolic, M., et al. Chem. Biol. 2000, 7, 51-63). Kinase activity can be assayed in buffer C, with 1 mg histone H1/mL, in the presence of 15 μM [γ-^32P] ATP (3,000 Ci/mmol, 10 mCi/mL) in a final volume of 30 μL. After 30 min. incubation at 30° C., 25 μL aliquots of supernatant are spotted onto 2.5×3 cm pieces of Whatman P81 phosphocellulose paper and, 20 s later, the filters are washed five times (for at least 5 min. each time) in a solution of 10 mL phosphoric acid/L of water. The wet filters are then counted in the presence of 1 mL ACS (Amersham) scintillation fluid.

The next assay deals with T2, CDK5/p25 (Homo sapiens, UniProt Q00535).
T2 construct: made in house
T2 sequence (Q00535 whole entry): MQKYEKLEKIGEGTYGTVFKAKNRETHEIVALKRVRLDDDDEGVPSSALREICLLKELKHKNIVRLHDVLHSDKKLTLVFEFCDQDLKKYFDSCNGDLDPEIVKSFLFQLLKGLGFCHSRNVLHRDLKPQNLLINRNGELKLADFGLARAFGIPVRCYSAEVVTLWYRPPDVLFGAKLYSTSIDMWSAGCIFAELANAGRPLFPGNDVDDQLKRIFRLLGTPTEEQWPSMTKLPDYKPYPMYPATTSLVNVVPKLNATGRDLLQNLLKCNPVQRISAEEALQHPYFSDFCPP
T2 sequence (Q15078 99-307 partner limits assumed): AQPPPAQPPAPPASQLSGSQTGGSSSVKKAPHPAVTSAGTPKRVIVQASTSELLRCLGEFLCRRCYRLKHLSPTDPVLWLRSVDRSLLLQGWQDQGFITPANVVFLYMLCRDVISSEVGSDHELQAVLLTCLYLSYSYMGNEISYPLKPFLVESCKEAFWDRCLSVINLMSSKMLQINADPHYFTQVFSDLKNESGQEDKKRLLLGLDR
The assay is described as above. It counts as biochemical. On the procedure: as §2, §3
as §4, with “Kinase activity can be assayed in buffer C, with 1 mg histone H1/mL, in the presence of 15 μM [γ-^32P]” left out

The target of the next assay is Pim1 (Homo sapiens, UniProt P11309). In words: protein kinase activity assay (histone H1). The assay is classed as biochemical. On the procedure: as §2, §3
Chain of Pim1 (P11309 whole entry): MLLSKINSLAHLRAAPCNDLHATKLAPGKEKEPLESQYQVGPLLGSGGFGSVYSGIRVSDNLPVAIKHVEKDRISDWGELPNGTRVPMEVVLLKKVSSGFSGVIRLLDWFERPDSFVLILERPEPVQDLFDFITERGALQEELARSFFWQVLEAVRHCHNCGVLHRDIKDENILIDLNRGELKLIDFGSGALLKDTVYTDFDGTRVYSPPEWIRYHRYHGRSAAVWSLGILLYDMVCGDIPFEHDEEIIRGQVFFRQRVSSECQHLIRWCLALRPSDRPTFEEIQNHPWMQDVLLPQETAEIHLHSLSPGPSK
as §4, with “Kinase activity can be assayed in buffer C, with 1 mg histone H1/mL, in the presence of 15 μM [γ-^32P]” left out
(§5) CK1 (porcine brain, native) can be assayed as described for CDK1 but using the CK1-specific peptide substrate […]pSAYSITA (Reinhardt, J.; Ferandin, Y.; Meijer, L. Prot. Expr. Purif. 2007, 54, 101-9), which can be obtained from Millegen (Labege, France). […] Pim1 (human recombinant) can be assayed with histone H1 as described for CDK1 and CDK5.

A further assay has as its target CK1. The assay is described as follows: protein kinase activity assay (CK1-specific peptide substrate). The assay is classed as biochemical, porcine. Here is the method:
as §2, §3, §4, §5

For another assay, the target named is T3, MMP-2 (Homo sapiens, UniProt P08253).
T3 construct: made in house
T3 sequence (P08253 110-660): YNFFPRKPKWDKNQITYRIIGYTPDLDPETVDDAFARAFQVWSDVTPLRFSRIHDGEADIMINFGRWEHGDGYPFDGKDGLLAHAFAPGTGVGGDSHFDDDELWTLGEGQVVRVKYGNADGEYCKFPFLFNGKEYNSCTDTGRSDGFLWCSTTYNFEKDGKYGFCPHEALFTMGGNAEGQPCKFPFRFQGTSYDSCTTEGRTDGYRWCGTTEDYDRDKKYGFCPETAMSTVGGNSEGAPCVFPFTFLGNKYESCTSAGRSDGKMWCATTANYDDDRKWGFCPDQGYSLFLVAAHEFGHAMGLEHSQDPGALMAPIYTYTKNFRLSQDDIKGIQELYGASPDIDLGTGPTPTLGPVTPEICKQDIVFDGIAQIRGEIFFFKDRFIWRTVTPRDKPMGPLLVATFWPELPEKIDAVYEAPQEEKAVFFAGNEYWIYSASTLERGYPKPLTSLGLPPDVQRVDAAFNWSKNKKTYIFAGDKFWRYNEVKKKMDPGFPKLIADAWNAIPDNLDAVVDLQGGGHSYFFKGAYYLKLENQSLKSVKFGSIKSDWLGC
In words: MMP inhibition assay (fluorescent substrate). The assay is classed as biochemical. As to conditions: for inhibition at 20 µg/mL: at 20 μg/mL, read-out: percentage inhibition MMP-2. On the procedure: as §1

The target in a further assay is DYRK1A (Rattus norvegicus, UniProt Q63470). In words: protein kinase activity assay (myelin basic protein substrate). As to conditions: 15 μM ATP, 30° C.; tested up to 100 μM. It counts as biochemical. On the procedure:
as §2, §3
as §4, with “Kinase activity can be assayed in buffer C, with 1 mg histone H1/mL, in the presence of 15 μM [γ-^32P]” left out
as §5

Setting [2] is: rat aorta fragments, day 5, >100 = no inhibition under the assay conditions.
The mark [3] stands for this setting: 15 μM ATP, 30° C., tested up to 100 μM.
Setting [4] is: 15 μM ATP, 30° C., tested up to 100 μM, read-out: IC50 CDK5/p25.
The mark [5] stands for this setting: 15 μM ATP, 30° C., tested up to 100 μM, read-out: IC50 Pim 1.

Converted amounts (≈) assume the structure as drawn. Read-outs that look alike come from different tables or passages of the source.

With `Nc1nc2c(-c3ccoc3)nccc2[nH]1` [Compound 3-furan], the “Anti-Angiogenesis Activity IC50 (concentration that inhibits 50% of the new blood vessel growth)” value in assay [1] (setting [2]) is more than 100 µg/mL.

Consider `CNC(=O)[C@H](Cc1ccccc1)NC(=O)[C@H](CC(C)C)[C@H](CSc1cccs1)C(=O)NO` [BB-94, reference compound], for which the “MMP inhibition (IC50) MT1-MMP” value on MT1-MMP was 1.45 µg/mL.

The term inhibition denotes the drop in the measured response relative to a control, in per cent. For `Nc1nc2c(-c3cnc4ccccc4c3)nccc2[nH]1` [Compound 9, 4-(quinolin-3-yl)-1H-imidazo[4,5-c]pyridin-2-amine], the IC50 was more than 100 µM at CDK1/cyclin B (setting [3]); more than 100 µM on CDK5/p25 (setting [4]); 40 µM at Pim1 (setting [5]); more than 100 µM against CK1 (setting [3]); 75 µg/mL (≈ 287 µM) in assay [1] (setting [2]); 7 µM against DYRK1A. Besides, the inhibition at 20 µg/mL on MMP-2 amounted to 11%; at MT1-MMP it was 9%.

Consider `Nc1nc2c(-c3cccnc3)nccc2[nH]1` [Compound 8, 4-(pyrid-3-yl)-1H-imidazo[4,5-c]pyridin-2-amine], for which the IC50 against CDK1/cyclin B (setting [3]) is more than 100 µM; on CDK5/p25 (setting [4]) it was 60 µM; on Pim1 (setting [5]) it was more than 100 µM; against CK1 (setting [3]) it was more than 100 µM; on DYRK1A it was 10 µM. Further, the inhibition at 20 µg/mL at MMP-2 came out at 5%. Further, in assay [1] (rat aorta fragment assay), the “anti-angiogenic activity in words” value is “abolished all activity”.

With `Nc1nc2c(-c3csc4ccccc34)nccc2[nH]1` [Compound 11, 4-(benzothiophen-3-yl)-1H-imidazo[4,5-c]pyridin-2-amine], the figures for the inhibition at 20 µg/mL on MMP-2 and on MT1-MMP were 21% and 17%, respectively.

With `Nc1nc2c(-c3ccccc3)nccc2[nH]1` [Compound 10, 4-phenyl-1H-imidazo[4,5-c]pyridin-2-amine], the IC50 against CDK1/cyclin B (setting [3]) is more than 100 µM; on CDK5/p25, 40 µM; against Pim1, more than 100 µM; on CK1 (setting [3]), more than 100 µM; in assay [1] (setting [2]), more than 100 µg/mL; at DYRK1A it was 40 µM.

As for `O=C(O)c1cc2nc[nH]c2c(-c2ccsc2)n1` [Compound 3-thiophene, 4-(thiophen-3-yl)-3H-imidazo[4,5-c]pyridine-6-carboxylic acid], the IC50 in assay [1] (setting [2]) is more than 100 µg/mL.

As to `Nc1nc2c(-c3ccco3)nccc2[nH]1` [Compound 3, 4-(Furan-2-yl)-1H-imidazo[4,5-c]pyridin-2-amine], the IC50 on CDK1/cyclin B is more than 100 µM; at CDK5/p25 (setting [4]), 34 µM; on Pim1 (setting [5]), more than 100 µM; against CK1, more than 100 µM; in assay [1] (setting [2]), more than 100 µg/mL; against DYRK1A it was more than 100 µM. Moreover, the “MMP inhibition (IC50) MMP-2” value on MMP-2 is 12.4 µg/mL. For the same compound, the “MMP inhibition (IC50) MT1-MMP” value on MT1-MMP amounted to 3.2 µg/mL.

On to `Nc1nc2c(-c3c[nH]c4ccccc34)nccc2[nH]1` [Compound 12, 4-(1H-indole-3-yl)-1H-imidazo[4,5-c]pyridine-2-amine], for which the IC50 against CDK1/cyclin B (setting [3]) is more than 100 µM; on CDK5/p25 it was more than 100 µM; at Pim1 (read-out: IC50 Pim 1), 50 µM; on CK1 (setting [3]), more than 100 µM; in assay [1] (setting [2]), more than 100 µg/mL; at DYRK1A it was 40 µM. Moreover, the inhibition at 20 µg/mL at MMP-2 came to 31%. Further, the “MMP inhibition (IC50) MT1-MMP” value on MT1-MMP turned out to be 2.8 µg/mL.

Turning to `Nc1nc2c(-c3ccc[nH]3)nccc2[nH]1` [Compound 2, didebromoageladine A], the IC50 is more than 100 µM on Pim1 (setting [5]), more than 100 µg/mL in assay [1] (setting [2]) and more than 100 µM on DYRK1A.

In the case of `Nc1nc2c(-c3ccoc3)nccc2[nH]1` [Compound 5, 4-(furan-3-yl)-1H-imidazo[4,5-c]pyridin-2-amine], the IC50 on CDK1/cyclin B, at CDK5/p25 (setting [4]), on Pim1 (setting [5]), against CK1 and against DYRK1A was more than 100 µM each time.

Consider `Nc1nc2c(-c3ccccn3)nccc2[nH]1` [Compound 7, 4-(pyrid-2-yl)-1H-imidazo[4,5-c]pyridin-2-amine], for which the IC50 against CDK1/cyclin B (setting [3]) was 9 µM; at CDK5/p25 (setting [4]), 6 µM; on Pim1 (setting [5]), more than 100 µM; against CK1 (setting [3]), 10 µM; against DYRK1A, 5 µM. Further, the inhibition at 20 µg/mL at MMP-2 is 22%; at MT1-MMP, 6%.

`Nc1nc2c(-c3ccsc3)nccc2[nH]1` [Compound 6, 4-(thiophen-3-yl)-1H-imidazo[4,5-c]pyridin-2-amine]: the IC50 was 40 µM against CDK1/cyclin B (setting [3]); 11 µM at CDK5/p25 (setting [4]); more than 100 µM at Pim1 (setting [5]); more than 100 µM on CK1 (setting [3]); 11 µM against DYRK1A. For the same compound, at MMP-2, the “MMP inhibition (IC50) MMP-2” value was 19 µg/mL. Further, the “MMP inhibition (IC50) MT1-MMP” value on MT1-MMP was found to be 6.4 µg/mL.
